Reference: patent US20040142933A1, “Oxindole substituted piperazine derivatives” (priority 2002, published 2004)

Legend:
[1] = target: T1, serotonin 2A (5HT2A) receptor (Homo sapiens, UniProt P28223); experiment: Serotonin 2A binding, [3H]ketanserin, Swiss-h5HT2A cell membranes; settings: [3H]ketanserin 1.0 nM
T1 construct: expressed in transfected cells; host or cells: Swiss cells (Swiss-h5HT2A)
From the text: (§1) The ability of the compounds of this invention to bind to the dopamine D2 and serotonin 2A (5HT2A) receptors can be determined using conventional radioligand receptor binding assays. All receptors can be heterologously expressed in cell lines and experiments conducted in membrane preparations from the cell lines using procedures outlined below. IC50 concentrations can be determined by nonlinear regression of concentration-dependent reduction in specific binding. The Cheng-Prussoff equation can be used to convert the IC50 to Ki concentrations.
[^3H] Ketanserin binding to Swiss-h5HT2A cell membranes can be carried out in 250 μl of 50 mM Tris-HCl buffer pH 7.4. Duplicate samples containing (in order of addition) test compounds, 1.0 nM [^3H]ketanserin, and approximately 75 μg protein are incubated for 120 minutes at room temperature. Bound radioligand is separated by rapid filtration under reduced pressure through Whatman GF/B glass fiber filters previously treated with 0.3% polyethyleneimine. Radioactivity retained on the filter is determined by liquid scintillation spectrophotometry.
The title compounds of Examples 1-14 were tested using the above assay, in which specific binding determined in the presence of 1 mM ketanserin was 90%.

dopamine D2 receptor = target: T2, dopamine D2 receptor (Homo sapiens, UniProt P14416); experiment: Dopamine D2 receptor binding, [3H]spiperone, CHO-hD2L cell membranes; settings: [3H]spiperone 0.4 nM
T2 construct: expressed in transfected cells; host or cells: CHO cells (CHO-hD2L)
T2 sequence (P14416 whole entry): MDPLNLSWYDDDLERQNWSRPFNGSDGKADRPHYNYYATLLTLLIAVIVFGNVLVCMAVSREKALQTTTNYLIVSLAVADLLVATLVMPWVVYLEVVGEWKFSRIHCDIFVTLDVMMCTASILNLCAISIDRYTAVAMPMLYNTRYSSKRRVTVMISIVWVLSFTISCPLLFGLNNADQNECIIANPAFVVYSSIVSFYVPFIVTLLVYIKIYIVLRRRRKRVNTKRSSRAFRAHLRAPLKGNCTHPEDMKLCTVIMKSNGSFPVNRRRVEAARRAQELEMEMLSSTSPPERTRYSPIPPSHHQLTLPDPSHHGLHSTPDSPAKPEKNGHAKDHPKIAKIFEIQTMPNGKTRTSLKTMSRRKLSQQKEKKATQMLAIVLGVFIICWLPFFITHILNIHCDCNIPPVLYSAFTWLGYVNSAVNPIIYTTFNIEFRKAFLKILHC
From the text: as §1
Dopamine D2 Receptor Binding:
[^3H]Spiperone binding to a membrane preparation from CHO-hD2L cells is carried out in 250 μl of 50 mM Tris-HCl buffer containing 100 mM NaCl, 1 mM MgCl2 and 1% DMSO at pH 7.4. Duplicate samples containing (in order of addition) the test compounds, 0.4 nM [^3H]spiperone and approximately 12 μg protein are incubated for 120 minutes at room temperature. Bound radioligand is separated by rapid filtration under reduced pressure through Whatman GF/B glass fiber filters previously treated with 0.3% polyethyleneimine. Radioactivity retained on the filter is determined by liquid scintillation spectrophotometry.
The title compounds of Examples 1-14 were tested using the above assay, in which specific binding determined in the presence of 1 mM haloperidol was 95%.

T1 sequence (P28223 whole entry): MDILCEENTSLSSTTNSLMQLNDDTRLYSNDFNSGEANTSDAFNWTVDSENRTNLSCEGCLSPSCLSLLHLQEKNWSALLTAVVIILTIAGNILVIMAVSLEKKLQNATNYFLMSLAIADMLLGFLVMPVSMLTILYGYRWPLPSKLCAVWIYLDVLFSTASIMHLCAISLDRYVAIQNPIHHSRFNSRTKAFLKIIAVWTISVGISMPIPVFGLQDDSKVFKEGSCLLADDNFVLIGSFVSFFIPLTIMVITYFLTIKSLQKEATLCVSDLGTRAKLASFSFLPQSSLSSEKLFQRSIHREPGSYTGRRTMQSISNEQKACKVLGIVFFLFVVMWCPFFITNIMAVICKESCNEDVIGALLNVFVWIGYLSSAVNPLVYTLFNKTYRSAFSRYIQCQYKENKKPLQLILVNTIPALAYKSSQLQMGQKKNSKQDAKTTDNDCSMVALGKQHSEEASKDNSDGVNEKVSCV

| Compound | Ki [1] [nM] | Ki (dopamine D2 receptor) [nM] |
| --- | --- | --- |
| CC(C)=C1C(=O)N(C)c2ccc(CCN3CCN(c4nsc5ccccc45)CC3)cc21 [Example 1, 5-[2-(4-1,2-benzisothiazol-3-yl-piperazin-1-yl)-ethyl]-3-isopropylidene-1-methyl-1,3-dihydro-indol-2-one] | 0.75 | 14.7 |
| CC(C)=C1C(=O)Nc2ccc(CCCN3CCN(c4noc5ccccc45)CC3)cc21 [Example 4, 5-[3-(4-1,2-Benzisoxazol-3-yl-piperazin-1-yl)-propyl]-3-isopropylidene-1,3-dihydro-indol-2-one] |  | 49.4 |
| CC1(C)CC12C(=O)Nc1cc(Cl)c(CCCN3CCN(c4nsc5ccccc45)CC3)cc12 (stereo not drawn) [Example 14, Spiro[cyclopropane-1,3′-{3H}indol]-2′(1′H)-one,5′-[3-[4-{1,2-benzisothiazol-3-yl}-1-piperazinyl]propyl]-6′-chloro-2,2-dimethyl—] | 7.45 |  |
| CC(C)=C1C(=O)Nc2cc(Cl)c(CCN3CCN(c4nsc5ccccc45)CC3)cc21 [Example 5, 5-[2-(4-1,2-benzisothiazol-3-yl-piperazin-1-yl)-ethyl]-6-chloro-3-isopropylidene-1,3-dihydro-indol-2-one] | 8.4 | 1.3 |
